Test results taken from patent US12122763B2, “Substituted piperidines for androgen receptor degradation” (UBIX THERAPEUTICS, INC., priority 2020, dated 2024).

Target: T1, Androgen Receptor (AR) protein (Homo sapiens, UniProt P10275, T878A)
T1 construct: endogenous in cells; host or cells: LNCaP
Assay: Androgen Receptor (AR) protein degradation assay in LNCaP cells, western blotting
Assay type: cell-based
Conditions: 20 h; for inhibition at 0.01 µM: 0.01 μM compound; for inhibition at 0.1 µM: 0.1 μM compound; for inhibition at 1 µM: 1 μM compound
Procedure, shortened: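 AR protein level was detected by western blot (ECL) against GAPDH or β-actin controls, with 8 μg lysate protein loaded per lane after BCA quantification. Lysates came from LNCaP cells exposed to test compound for 20 h, following 3 days of growth in RPMI/10% FBS.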

T1 sequence (P10275 whole entry T878A): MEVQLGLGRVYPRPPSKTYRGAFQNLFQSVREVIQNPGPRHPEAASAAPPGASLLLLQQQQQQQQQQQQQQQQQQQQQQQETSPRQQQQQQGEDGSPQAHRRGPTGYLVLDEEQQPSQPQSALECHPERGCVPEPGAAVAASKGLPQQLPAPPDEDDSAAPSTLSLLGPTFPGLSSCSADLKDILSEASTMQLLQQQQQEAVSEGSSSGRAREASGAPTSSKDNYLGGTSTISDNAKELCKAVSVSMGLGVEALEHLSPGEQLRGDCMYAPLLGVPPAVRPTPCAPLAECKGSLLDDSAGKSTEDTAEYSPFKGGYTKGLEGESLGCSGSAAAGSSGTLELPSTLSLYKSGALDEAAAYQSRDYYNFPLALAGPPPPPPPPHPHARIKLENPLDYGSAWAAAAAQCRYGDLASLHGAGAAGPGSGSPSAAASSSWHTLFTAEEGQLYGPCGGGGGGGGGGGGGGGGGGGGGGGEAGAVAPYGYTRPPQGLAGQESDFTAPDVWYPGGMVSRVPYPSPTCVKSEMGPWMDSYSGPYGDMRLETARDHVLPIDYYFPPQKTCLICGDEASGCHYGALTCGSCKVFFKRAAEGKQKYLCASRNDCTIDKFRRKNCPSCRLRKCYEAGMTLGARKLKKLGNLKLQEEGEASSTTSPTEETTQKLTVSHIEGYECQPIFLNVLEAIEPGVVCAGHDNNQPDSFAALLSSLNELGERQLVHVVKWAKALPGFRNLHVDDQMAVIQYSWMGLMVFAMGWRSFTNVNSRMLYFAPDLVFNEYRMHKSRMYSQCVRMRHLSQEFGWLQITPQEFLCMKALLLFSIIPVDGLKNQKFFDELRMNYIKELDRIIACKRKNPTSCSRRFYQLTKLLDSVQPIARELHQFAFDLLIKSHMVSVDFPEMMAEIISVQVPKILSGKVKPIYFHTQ
T1 sequence (Q96SW2 whole entry partner): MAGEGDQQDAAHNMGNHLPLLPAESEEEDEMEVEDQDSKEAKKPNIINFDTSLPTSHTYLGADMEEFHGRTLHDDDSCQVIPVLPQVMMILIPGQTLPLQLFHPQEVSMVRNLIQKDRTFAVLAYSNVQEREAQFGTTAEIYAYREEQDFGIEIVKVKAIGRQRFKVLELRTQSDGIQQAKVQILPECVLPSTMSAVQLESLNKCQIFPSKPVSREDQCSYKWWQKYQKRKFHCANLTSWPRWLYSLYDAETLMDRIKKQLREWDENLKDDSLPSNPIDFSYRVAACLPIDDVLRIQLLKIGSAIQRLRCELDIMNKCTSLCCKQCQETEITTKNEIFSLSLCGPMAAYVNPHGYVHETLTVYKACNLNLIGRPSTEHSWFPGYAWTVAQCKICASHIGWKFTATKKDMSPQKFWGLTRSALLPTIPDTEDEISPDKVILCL

N#Cc1ccc(N2CCC(C(=O)Nc3ccc(N4CCC(CN5CCC(CN6CCN(c7ccc8c(c7)C(=O)N(C7CCC(=O)NC7=O)C8=O)CC6)CC5)CC4)cn3)CC2)cc1C(F)(F)F (stereo not drawn) [Example 81, 1-(4-cyano-3-(trifluoromethyl)phenyl)-N-(5-(4-((4-((4-(2-(2,6-dioxopiperidin-3-yl)-1,3-dioxoisoindolin-5-yl)piperazin-1-yl)methyl)piperidin-1-yl)methyl)piperidin-1-yl)pyridin-2-yl)piperidine-4-carboxamide]
inhibition at 0.01 µM: 44% | inhibition at 0.1 µM: 87% | inhibition at 1 µM: 96%

N#Cc1ccc(N2CCC(C(=O)Nc3ccc(N4CCC(CN5CC[C@H](CN6CCN(c7ccc8c(c7)C(=O)N(C7CCC(=O)NC7=O)C8=O)CC6)C5)CC4)cn3)CC2)cc1C(F)(F)F (stereo partly drawn) [Example 82, 1-(4-cyano-3-(trifluoromethyl)phenyl)-N-(5-(4-(((3S)-3-((4-(2-(2,6-dioxopiperidin-3-yl)-1,3-dioxoisoindolin-5-yl)piperazin-1-yl)methyl)pyrrolidin-1-yl)methyl)piperidin-1-yl)pyridin-2-yl)piperidine-4-carboxamide]
inhibition at 0.01 µM: 33% | inhibition at 0.1 µM: 87% | inhibition at 1 µM: 95%

N#Cc1ccc(N2CCC(C(=O)Nc3ccc(N4CCC(CN5CC[C@@H](CN6CCN(c7ccc8c(c7)C(=O)N(C7CCC(=O)NC7=O)C8=O)CC6)C5)CC4)cn3)CC2)cc1C(F)(F)F (stereo partly drawn) [Example 83, 1-(4-cyano-3-(trifluoromethyl)phenyl)-N-(5-(4-(((3R)-3-((4-(2-(2,6-dioxopiperidin-3-yl)-1,3-dioxoisoindolin-5-yl)piperazin-1-yl)methyl)pyrrolidin-1-yl)methyl)piperidin-1-yl)pyridin-2-yl)piperidine-4-carboxamide]
inhibition at 0.01 µM: 25% | inhibition at 0.1 µM: 87% | inhibition at 1 µM: 96%

CN(CC1CCN(c2ccc(NC(=O)C3CCN(c4ccc(C#N)c(C(F)(F)F)c4)CC3)nc2)CC1)CC1CCN(c2ccc3c(c2)C(=O)N(C2CCC(=O)NC2=O)C3=O)CC1 (stereo not drawn) [Example 84, 1-(4-cyano-3-(trifluoromethyl)phenyl)-N-(5-(4-((((1-(2-(2,6-dioxopiperidin-3-yl)-1,3-dioxoisoindolin-5-yl)piperidin-4-yl)methyl)(methyl)amino)methyl)piperidin-1-yl)pyridin-2-yl)piperidine-4-carboxamide]
inhibition at 0.01 µM: 59% | inhibition at 0.1 µM: 89% | inhibition at 1 µM: 88%

N#Cc1ccc(N2CCC(C(=O)Nc3ccc(N4CCC(CN5CC6CN(c7ccc8c(c7)C(=O)N(C7CCC(=O)NC7=O)C8=O)CC6C5)CC4)cn3)CC2)cc1C(F)(F)F (stereo not drawn) [Example 85, 1-(4-cyano-3-(trifluoromethyl)phenyl)-N-(5-(4-((5-(2-(2,6-dioxopiperidin-3-yl)-1,3-dioxoisoindolin-5-yl)hexahydropyrrolo[3,4-c]pyrrol-2(1H)-yl)methyl)piperidin-1-yl)pyridin-2-yl)piperidine-4-carboxamide]
inhibition at 0.01 µM: 24% | inhibition at 0.1 µM: 89% | inhibition at 1 µM: 92%

N#Cc1ccc(N2CCC(C(=O)Nc3ccc(N4CCC(CCN5CCN(c6ccc7c(c6)C(=O)N(C6CCC(=O)NC6=O)C7=O)CC5)CC4)cn3)CC2)cc1C(F)(F)F (stereo not drawn) [Example 86, 1-(4-cyano-3-(trifluoromethyl)phenyl)-N-(5-(4-(2-(4-(2-(2,6-dioxopiperidin-3-yl)-1,3-dioxoisoindolin-5-yl)piperazin-1-yl)ethyl)piperidin-1-yl)pyridin-2-yl)piperidine-4-carboxamide]
inhibition at 0.01 µM: 65% | inhibition at 0.1 µM: 94% | inhibition at 1 µM: 96%

N#Cc1ccc(N2CCC(C(=O)Nc3ccc(N4CCC(CCN5CCN(c6ccc7c(c6)C(=O)N(C6CCC(=O)NC6=O)C7=O)CC5)CC4)cn3)CC2)cc1Cl (stereo not drawn) [Example 87, 1-(3-chloro-4-cyanophenyl)-N-(5-(4-(2-(4-(2-(2,6-dioxopiperidin-3-yl)-1,3-dioxoisoindolin-5-yl)piperazin-1-yl)ethyl)piperidin-1-yl)pyridin-2-yl)piperidine-4-carboxamide]
inhibition at 0.01 µM: 30% | inhibition at 0.1 µM: 88% | inhibition at 1 µM: 90%

N#Cc1ccc(N2CCC(F)(C(=O)Nc3ccc(N4CCC(CCN5CCN(c6ccc7c(c6)C(=O)N(C6CCC(=O)NC6=O)C7=O)CC5)CC4)cn3)CC2)cc1C(F)(F)F (stereo not drawn) [Example 88, 1-(4-cyano-3-(trifluoromethyl)phenyl)-N-(5-(4-(2-(4-(2-(2,6-dioxopiperidin-3-yl)-1,3-dioxoisoindolin-5-yl)piperazin-1-yl)ethyl)piperidin-1-yl)pyridin-2-yl)-4-fluoropiperidine-4-carboxamide]
inhibition at 0.01 µM: 35% | inhibition at 0.1 µM: 87% | inhibition at 1 µM: 96%

N#Cc1ncc(N2CCC(C(=O)Nc3ccc(N4CCC(CCN5CCN(c6ccc7c(c6)C(=O)N(C6CCC(=O)NC6=O)C7=O)CC5)CC4)cn3)CC2)cc1C(F)(F)F (stereo not drawn) [Example 89, 1-(6-cyano-5-(trifluoromethyl)pyridin-3-yl)-N-(5-(4-(2-(4-(2-(2,6-dioxopiperidin-3-yl)-1,3-dioxoisoindolin-5-yl)piperazin-1-yl)ethyl)piperidin-1-yl)pyridin-2-yl)piperidine-4-carboxamide]
inhibition at 0.01 µM: 35% | inhibition at 0.1 µM: 73% | inhibition at 1 µM: 91%

N#Cc1ncc(N2CCC(F)(C(=O)Nc3ccc(N4CCC(CCN5CCN(c6ccc7c(c6)C(=O)N(C6CCC(=O)NC6=O)C7=O)CC5)CC4)cn3)CC2)cc1C(F)(F)F (stereo not drawn) [Example 90, 1-(6-cyano-5-(trifluoromethyl)pyridin-3-yl)-N-(5-(4-(2-(4-(2-(2,6-dioxopiperidin-3-yl)-1,3-dioxoisoindolin-5-yl)piperazin-1-yl)ethyl)piperidin-1-yl)pyridin-2-yl)-4-fluoropiperidine-4-carboxamide]
inhibition at 0.01 µM: 23% | inhibition at 0.1 µM: 57% | inhibition at 1 µM: 82%

N#Cc1ccc(N2CCC(C(=O)Nc3ccc(N4CCC(CCN5CCN(C6CCN(c7ccc8c(c7)C(=O)N(C7CCC(=O)NC7=O)C8=O)CC6)CC5)CC4)cn3)CC2)cc1C(F)(F)F (stereo not drawn) [Example 91, 1-(4-cyano-3-(trifluoromethyl)phenyl)-N-(5-(4-(2-(4-(1-(2-(2,6-dioxopiperidin-3-yl)-1,3-dioxoisoindolin-5-yl)piperidin-4-yl)piperazin-1-yl)ethyl)piperidin-1-yl)pyridin-2-yl)piperidine-4-carboxamide]
inhibition at 0.01 µM: 48% | inhibition at 0.1 µM: 96% | inhibition at 1 µM: 98%

N#Cc1ccc(N2CCC(C(=O)Nc3ccc(N4CCC(CCN5CCN(c6ccc7c(n6)CN(C6CCC(=O)NC6=O)C7=O)CC5)CC4)cn3)CC2)cc1C(F)(F)F (stereo not drawn) [Example 92, 1-(4-cyano-3-(trifluoromethyl)phenyl)-N-(5-(4-(2-(4-(6-(2,6-dioxopiperidin-3-yl)-5-oxo-6,7-dihydro-5H-pyrrolo[3,4-b]pyridin-2-yl)piperazin-1-yl)ethyl)piperidin-1-yl)pyridin-2-yl)piperidine-4-carboxamide]
inhibition at 0.01 µM: 53% | inhibition at 0.1 µM: 67% | inhibition at 1 µM: 96%

N#Cc1ccc(N2CCC(C(=O)Nc3ccc(N4CCC(CCN5CCN(c6cccc7c6C(=O)N(C6CCC(=O)NC6=O)C7=O)CC5)CC4)cn3)CC2)cc1C(F)(F)F (stereo not drawn) [Example 93, 1-(4-cyano-3-(trifluoromethyl)phenyl)-N-(5-(4-(2-(4-(2-(2,6-dioxopiperidin-3-yl)-1,3-dioxoisoindolin-4-yl)piperazin-1-yl)ethyl)piperidin-1-yl)pyridin-2-yl)piperidine-4-carboxamide]
inhibition at 0.01 µM: -11% | inhibition at 0.1 µM: 55% | inhibition at 1 µM: 68%

N#Cc1ccc(N2CCC(C(=O)Nc3ccc(N4CCC(CCN5CC6(CCN(c7ccc8c(c7)C(=O)N(C7CCC(=O)NC7=O)C8=O)CC6)C5)CC4)cn3)CC2)cc1C(F)(F)F (stereo not drawn) [Example 94, 1-(4-cyano-3-(trifluoromethyl)phenyl)-N-(5-(4-(2-(7-(2-(2,6-dioxopiperidin-3-yl)-1,3-dioxoisoindolin-5-yl)-2,7-diazaspiro[3.5]nonan-2-yl)ethyl)piperidin-1-yl)pyridin-2-yl)piperidine-4-carboxamide]
inhibition at 0.01 µM: 75% | inhibition at 0.1 µM: 98% | inhibition at 1 µM: 98%

N#Cc1ccc(N2CCC(C(=O)Nc3ccc(N4CCC(CCN5CCC6(CC5)CN(c5ccc7c(c5)C(=O)N(C5CCC(=O)NC5=O)C7=O)C6)CC4)cn3)CC2)cc1C(F)(F)F (stereo not drawn) [Example 95, 1-(4-cyano-3-(trifluoromethyl)phenyl)-N-(5-(4-(2-(2-(2-(2,6-dioxopiperidin-3-yl)-1,3-dioxoisoindolin-5-yl)-2,7-diazaspiro[3.5]nonan-7-yl)ethyl)piperidin-1-yl)pyridin-2-yl)piperidine-4-carboxamide]
inhibition at 0.01 µM: 62% | inhibition at 0.1 µM: 96% | inhibition at 1 µM: 97%

N#Cc1ccc(N2CCC(C(=O)Nc3ccc(N4CCC(CCN5CCC6(CC5)CN(c5ccc7c(n5)CN(C5CCC(=O)NC5=O)C7=O)C6)CC4)cn3)CC2)cc1C(F)(F)F (stereo not drawn) [Example 96, 1-(4-cyano-3-(trifluoromethyl)phenyl)-N-(5-(4-(2-(2-(6-(2,6-dioxopiperidin-3-yl)-5-oxo-6,7-dihydro-5H-pyrrolo[3,4-b]pyridin-2-yl)-2,7-diazaspiro[3.5]nonan-7-yl)ethyl)piperidin-1-yl)pyridin-2-yl)piperidine-4-carboxamide]
inhibition at 0.01 µM: 71% | inhibition at 0.1 µM: 93% | inhibition at 1 µM: 91%

N#Cc1ccc(N2CCC(C(=O)Nc3ccc(N4CCC(CCN5CC(N6CCN(c7ccc8c(c7)C(=O)N(C7CCC(=O)NC7=O)C8=O)CC6)C5)CC4)cn3)CC2)cc1C(F)(F)F (stereo not drawn) [Example 97, 1-(4-cyano-3-(trifluoromethyl)phenyl)-N-(5-(4-(2-(3-(4-(2-(2,6-dioxopiperidin-3-yl)-1,3-dioxoisoindolin-5-yl)piperazin-1-yl)azetidin-1-yl)ethyl)piperidin-1-yl)pyridin-2-yl)piperidine-4-carboxamide]
inhibition at 0.01 µM: 39% | inhibition at 0.1 µM: 93% | inhibition at 1 µM: 96%
